Measured values: publication PMC9945177, “Nature-Derived Epoxy Resin Monomers with Reduced Sensitizing Capacity—Isosorbide-Based Bis-Epoxides” (Chemical Research in Toxicology, 2023)

Experiments:
AcPHCKRM = experiment: peptide depletion with AcPHCKRM; settings: peptide 1 mM, test compound 10 mM, DMSO/phosphate buffer pH 7.4 (1:1), room temperature
Description: Liquid chromatography-mass spectroscopy (LC-MS) analyses of peptide depletion experiments were performed using electrospray ionization (ESI) on a Hewlett-Packard 1100 HPLC/MS (Agilent Technologies, Waldbronn, Germany). The system included a vacuum degasser, a binary pump, an autoinjector, a column thermostat, a diode array detector, and a single quadrupole mass spectrometer. The high-performance liquid chromatography (HPLC) system was equipped with a HyPURITY C18 column (150 × 3 mm i.d., particle size 3 μm, Thermo Hypersil-Keystone, Thermo Electron Corp., Bellafonte, PA, USA). The mobile phase consisted of 0.005% pentafluoropropanoic acid, 0.1% acetic acid, and 5% acetonitrile in water (solvent A) and 0.005% pentafluoropropanoic acid, 0.1% acetic acid, and 50% water in acetonitrile (solvent B). […] The gradient conditions used were as follows: 0-8% B (0-3 min), 8-10% B (3-15 min), 10-100% B (15-18 min), 100% B (18-30 min), 100-0% B (30-30.1 min), 0% B (30.1-40 min). The ESI interface was used in positive ionization mode with the following spray chamber settings: nebulizer pressure, 35 psi; capillary voltage, 3000 V; drying gas temperature, 350 °C; and drying gas flow rate, 12 L/min. The fragmentor voltage was set to 120 V. The mass spectrometer was used in scan mode detecting molecular ions with m/z values ranging from 50 to 1800. All solvents were degassed with argon prior to use.

[1] = thermogravimetric analysis (TGA) of polymers formed with TETA; type: physicochemical; settings: polymer cured with TETA, TGA under nitrogen
Description: Detailed information on the polymerization procedure and the thermogravimetric analysis (TGA) is given in the Supporting Information.
Pilot experiments using TGA were conducted to investigate the properties of the polymers formed from isosorbide bis-epoxides 1–3 and the commonly used curing agent TETA (Table 2 and Figure 6). The onset of degradation is described by the initial decomposition temperature (IDT) and is an indication of the thermal stability of the cured epoxy resins. The maximum weight loss rate (Rmax) and the temperature (Tmax) at Rmax were taken from the peak values of the thermograms. The activation energies (Ea) for the decomposition of the polymers were calculated from the thermograms based on the Horowitz–Metzger equation.[43],[44]

Female CBA/Ca mice = experiment: murine local lymph node assay (LLNA); type: in vivo
Description: Female CBA/Ca mice, 7 to 9 weeks of age, were purchased from NOVA SCB Charles River, Germany. The mice were housed in HEPA-filtered air flow cages and kept on standard laboratory diet and water ad lib. The regional ethics committee, Jordbruksverket, approved the protocol and the procedure was performed in accordance with the guidelines.
A previously published protocol[24] of the LLNA[34] was used to assess the sensitization potential of the isosorbide bis-epoxides 1–3. The purity of the assessed isosorbide bis-epoxides was >99% (GC/MS or LC/MS) before testing of sensitization potential. The isosorbide bis-epoxides were tested in five different concentrations; 1: 3.9 mM (0.10% w/v), 39 mM (1.0% w/v), 190 mM (5.0% w/v), 390 mM (10% w/v), and 770 mM (20% w/v); 2: 21 mM (1.0% w/v), 54 mM (2.5% w/v), 110 mM (5.0% w/v), 210 mM (10% w/v), and 540 mM (25% w/v); and 3: 2.3 mM (0.10% w/v), 23 mM (1.0% w/v), 110 mM (5.0% w/v), 230 mM (10% w/v), and 460 mM (20% w/v). A detailed description is given in Supporting Information.
The three isosorbide bis-epoxides were evaluated for sensitization potential in vivo with the murine LLNA (Figure 2). The stimulation index (SI) is defined as the ratio between the dpm/lymph node for the test group and the control group. Test materials that at one or more concentrations cause an SI greater than 3 are considered positive in the LLNA. The estimated concentration required to induce an SI of 3 (EC3) is used to determine the sensitizing potency of the test compound. […] Isosorbide bis-epoxide 1 gave an EC3 value of 0.17 M (4.4%), 3 gave an EC3 value of 0.36 M (16%), and no EC3 value was obtained for 2 (for full results, see the Supporting Information, Table S1).
A previously published protocol1 of the LLNA2 was used to assess the sensitization potential of the isosorbide bis-epoxides 1-3. The purity of the assessed isosorbide bis-epoxides was >98% according to LC/MS analysis. The isosorbide bis-epoxides were tested in five different concentrations; 1: 3.87 mM […]
456 mM (20% w/v). Briefly, mice in groups of three received 25 µL of test compound dissolved in the vehicle acetone/olive oil (4:1 v/v), on the dorsum of the ears for three consecutive days (day 0, 1, and 2). A sixth group of four mice was treated with vehicle only (control group). On day 5, all mice were injected intravenously via the tail vein with 250 µL of phosphate buffered saline (PBS) (pH 7.4, 137 mM NaCl, 2.7 mM KCl, and 10 mM phosphate buffer) containing 20 µCi [methyl-3H]thymidine. Five hours later the mice were sacrificed, the draining lymph nodes were excised and pooled for each group, followed by preparation of single-cell suspensions of lymph nodes in PBS by using cell strainers (Falcon; BD Labware, Franklin Lakes, NJ, USA; pore size, 70 µm). Cell suspensions were washed twice with PBS, precipitated with trichloroacetic acid (TCA) (5%), and stored at 4 °C overnight. The samples were then centrifuged, resuspended in TCA (5%, 1 mL), and transferred to scintillation cocktail (10 mL) (EcoLume INC Radiochemicals, Solon, OH, USA). The incorporation of [methyl-3H]thymidine into DNA was measured by b-scintillation counting with a Beckman LS 6000TA instrument. Results are expressed as the mean dpm/lymph node for each experimental group and as stimulation index (SI). The SI is defined as the ratio between dpm/lymph node for the test group and the control group. Test materials that at one or more concentrations cause an SI greater than 3 are considered positive in the LLNA. EC3 values (the estimated concentration required to induce an SI of 3) were calculated by linear interpolation.
Results from the Local Lymph Node Assay
Table S1: Full results from the LLNA of bis-epoxides 1-3a
Test Test [3H]thymidine SI EC value

[2] = estimated concentration required to induce an SI of 3, linear interpolation

Row | Ea (activation energy for the decomposition of the cured epoxy resins) [1] | IDT (initial decomposition temperature) [1] | Rmax (maximum weight loss rate) [1] | Tmax (temperature at the maximum rate of weight loss) [1] | SI (Female CBA/Ca mice; test concentration 1.0% w/v) | [3H]thymidine incorporation (dpm/lymph node) (Female CBA/Ca mice; test concentration 1.0% w/v) | SI (Female CBA/Ca mice; test concentration 5.0% w/v) | [3H]thymidine incorporation (dpm/lymph node) (Female CBA/Ca mice; test concentration 5.0% w/v) | SI (Female CBA/Ca mice; test concentration 10% w/v) | [3H]thymidine incorporation (dpm/lymph node) (Female CBA/Ca mice; test concentration 10% w/v) | Structure (SMILES) | reactivity with the model peptide AcPHCKRM (AcPHCKRM) | also measured
1 | 15.8 kcal/mol | 361 °C | –0.373 %/°C | 411 °C | 1.06 | 455 dpm/lymph node | 1.10 | 473 dpm/lymph node | 1.07 | 459 dpm/lymph node | O=C(OC1COC2C(OC(=O)c3ccc(CC4CO4)cc3)COC12)c1ccc(CC2CO2)cc1 [Compound 2, (3R,3aR,6S,6aR)-3,6-O-Bis[4-(3,4-epoxypropyl)benzoyl]-1,4:3,6-dianhydro-D-glucitol] | least reactive | LLNA outcome (Female CBA/Ca mice; in concentrations up to 25% w/v (0.54 M)): nonsensitizing; SI (Female CBA/Ca mice; test concentration 2.5% w/v): 1.43; [3H]thymidine incorporation (dpm/lymph node) (Female CBA/Ca mice; test concentration 2.5% w/v): 614 dpm/lymph node; SI (Female CBA/Ca mice; test concentration 25% w/v): 2.27; [3H]thymidine incorporation (dpm/lymph node) (Female CBA/Ca mice; test concentration 25% w/v): 972 dpm/lymph node
2 | 18.2 kcal/mol | 329 °C | –0.722 %/°C | 382 °C | 1.56 | 706 dpm/lymph node | 2.55 | 1158 dpm/lymph node | 2.85 | 1292 dpm/lymph node | c1cc(CC2CO2)ccc1CO[C@H]1CO[C@H]2[C@@H]1OC[C@H]2OCc1ccc(CC2CO2)cc1 (stereo partly drawn) [Compound 3, (3R,3aR,6S,6aR)-3,6-O-Bis[4-(3,4-epoxypropyl)benzyl]-1,4:3,6-dianhydro-D-glucitol] | slightly less reactive | EC3 value (%) (Female CBA/Ca mice; as printed in main text): 16%; sensitizing potency classification (Female CBA/Ca mice; classified by EC3): moderate (EC3 > 2%, moderate); EC3 value (Female CBA/Ca mice; [2]): 0.36 M; EC3 value (% w/v) (Female CBA/Ca mice; [2]): 15.8 % w/v; SI (Female CBA/Ca mice; test concentration 0.10% w/v): 1.06; [3H]thymidine incorporation (dpm/lymph node) (Female CBA/Ca mice; test concentration 0.10% w/v): 479 dpm/lymph node; SI (Female CBA/Ca mice; test concentration 20% w/v): 3.11; [3H]thymidine incorporation (dpm/lymph node) (Female CBA/Ca mice; test concentration 20% w/v): 1412 dpm/lymph node
